In patent US8853258B2, “C-linked hydroxamic acid derivatives useful as antibacterial agents” (Pfizer Inc., priority 2009, dated 2014):
Values after ≈ are worked out from the molar mass of the structure shown. Like-named read-outs stand apart in the source and are kept apart here.

Assays:
[1] = test system: Klebsiella pneumoniae: Ciprofloxacin-resistant isolate, ESBL, clinical isolate (KP-3700); experiment: MIC determination (CLSI), KP-3700; assay type: cell-based
Method in brief: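 Strain KP-3700, a clinical isolate producing extended-spectrum β-lactamases and resistant to ciprofloxacin, was tested. Minimum inhibitory concentrations determined via CLSI dilution methodology (M7-A7; M100-S18).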

[2] = target: Pseudomonas aeruginosa LpxC enzyme (Pseudomonas aeruginosa (strain ATCC 15692 / DSM 22644 / CIP 104116 / JCM 14847 / LMG 12228 / 1C / PRS 101 / PAO1), UniProt P47205); experiment: IC50 Assay, LpxC Enzyme from P. aeruginosa (PA LpxC Enzyme IC50); assay type: biochemical
Method in brief: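 Product formation quantified by RapidFire HTMS after a 1 h enzyme reaction quenched with 1N HCl.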

[3] = test system: Acinetobacter baumanii/haemolyticus: Multidrug-resistant clinical isolate (AB-3167); experiment: MIC determination (CLSI), AB-3167; assay type: cell-based; conditions: for MIC: Acinetobacter baumannii, Table 3, read-out: AB-3167 MIC
Method in brief: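 Multidrug-resistant clinical isolate AB-3167 (A. baumannii/haemolyticus) tested for minimum inhibitory concentration following CLSI dilution susceptibility standards M7-A7 and M100-S18.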

[4] = test system: Pseudomonas aeruginosa UI-18: Wild-type (PA-7); experiment: MIC determination (CLSI), PA-7; assay type: cell-based; conditions: for MIC: Pseudomonas aeruginosa, Table 3, read-out: PA-7 MIC
Method in brief: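 Wild-type P. aeruginosa UI-18 tested for minimum inhibitory concentration. Broth/agar dilution following CLSI standards (M7-A7, M100-S18).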

[5] = test system: Escherichia coli EC-1: VOGEL, mouse virulent; experiment: MIC determination (CLSI), EC-1; assay type: cell-based; conditions: for MIC: Escherichia coli, read-out: EC-1 MIC
Method in brief: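 E. coli Vogel, a mouse-virulent strain (EC-1), was tested. MICs were set by dilution susceptibility testing per CLSI standards M7-A7/M100-S18.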

[6] = P. aeruginosa LpxC enzyme, read-out: PA LpxC enzyeme IC50
[7] = Acinetobacter baumanii/haemolyticus AB-3167
[8] = Pseudomonas aeruginosa UI-18 (PA-7)
[9] = Table 3, read-out: PA LpxC enzyeme IC^50
[10] = Acinetobacter baumanii/haemolyticus multidrug-resistant clinical isolate AB-3167
[11] = Pseudomonas aeruginosa UI-18 wild-type PA-7
[12] = Escherichia coli EC-1 VOGEL, mouse virulent

Structure (SMILES)	KP-3700 MIC [1]	IC50 [2, 6] [nM]	AB-3167 MIC [3, 7]	PA-7 MIC [4, 8] [µg/mL]	EC-1 MIC ([5]; Escherichia coli EC-1)	IC50 [2, 9] [nM]	MIC [3] [µg/mL]	MIC [4] [µg/mL]	MIC [5] [µg/mL]	AB-3167 MIC [3, 10]	PA-7 MIC [4, 11]	EC-1 MIC [5, 12]
COc1ccc(-c2ccc(CCC(C)(C(=O)NO)S(C)(=O)=O)cn2)c(F)c1 (stereo not shown) [Example 219]	16 µg/mL	1.21	≧64 mg/L	8	4 µg/mL	–	–	–	–	–	–	–
C[C@@](CCc1ccc(-c2cnc3cc[nH]c3c2)cc1)(C(=O)NO)S(C)(=O)=O [Example 211]	≧64 mg/L	11.1	≧64 mg/L	32	≧64 mg/L	–	–	–	–	–	–	–
CC(CCc1ccc(OCc2nc(-c3cccc(Cl)c3)no2)cc1)(C(=O)NO)S(C)(=O)=O (stereo not shown) [Example 298, 4-(4-{[3-(3-chlorophenyl)-1,2,4-oxadiazol-5-yl]methoxy}phenyl)-N-hydroxy-2-methyl-2-(methylsulfonyl)butanamide]	32 µg/mL	–	–	–	–	1.66	16 (≈ 33.3 µM)	32 (≈ 66.7 µM)	16 (≈ 33.3 µM)	–	–	–
CC(CCc1ccc(-c2ccc(N3CCNCC3)cc2)cc1)(C(=O)NO)S(C)(=O)=O (stereo not shown) [Example 185]	≧64 mg/L	6.22	–	–	–	–	–	–	–	≧64 mg/L	8 µg/mL	16 µg/mL
CC(CCc1ccc(-c2ccc(Cl)cc2)cc1)(C(=O)NO)S(C)(=O)=O (stereo not shown) [Example 44]	1 µg/mL	0.0669	–	–	–	–	–	–	–	16 µg/mL	0.5 µg/mL	0.5 µg/mL
CC(CCc1ccc(-c2ccc(C#N)c(Cl)c2)cc1)(C(=O)NO)S(C)(=O)=O (stereo not shown) [Example 126]	2 µg/mL	0.329	–	–	–	–	–	–	–	8 µg/mL	0.5 µg/mL	0.5 µg/mL
CC(CCc1ccc(OCc2ccccc2)cc1)(C(=O)NO)S(C)(=O)=O (stereo not shown) [Example 132]	16 µg/mL	0.386	–	–	–	–	–	–	–	16 µg/mL	2 µg/mL	2 µg/mL
Cc1oc(-c2ccccc2F)nc1COc1ccc(CCC(C)(C(=O)NO)S(C)(=O)=O)cc1 (stereo not shown) [Example 251, 4-(4-{[2-(2-fluorophenyl)-5-methyl-1,3-oxazol-4-yl]methoxy}phenyl)-N-hydroxy-2-methyl-2-(methylsulfonyl)butanamide]	≧64 mg/L	–	–	–	–	21.6	≥ 64	≥ 64	32 (≈ 67.2 µM)	–	–	–
CC(CCc1ccc(-c2ccc(N3CCN(S(C)(=O)=O)CC3)cc2)cc1)(C(=O)NO)S(C)(=O)=O (stereo not shown) [Example 193]	≧64 mg/L	1.08	–	–	–	–	–	–	–	≧64 mg/L	≧64 mg/L	16 µg/mL
CC(CCc1ccc(-c2ccc(C#N)cc2F)cc1)(C(=O)NO)S(C)(=O)=O (stereo not shown) [Example 128]	8 µg/mL	0.232	–	–	–	–	–	–	–	≧64 mg/L	0.5 µg/mL	0.5 µg/mL
CC(CCc1ccc(-c2ccc(O)cc2)cc1F)(C(=O)NO)S(C)(=O)=O (stereo not shown) [Example 178]	4 µg/mL	0.0592	–	–	–	–	–	–	–	8 µg/mL	1 µg/mL	1 µg/mL
COc1cc(COc2ccc(CCC(C)(C(=O)NO)S(C)(=O)=O)cc2)cc(OC)c1 (stereo not shown) [Example 244, 4-{4-[(3,5-dimethoxybenzyl)oxy]phenyl}-N-hydroxy-2-methyl-2-(methylsulfonyl)butanamide]	16 µg/mL	–	–	–	–	5	≥ 64	≥ 64	4 (≈ 9.14 µM)	–	–	–
CC(CCc1ccc(OCc2ccc(F)cc2F)cc1)(C(=O)NO)S(C)(=O)=O (stereo not shown) [Example 294, 4-{4-[(2,4-difluorobenzyl)oxy]phenyl}-N-hydroxy-2-methyl-2-(methylsulfonyl)butanamide]	16 µg/mL	–	–	–	–	0.992	32 (≈ 77.4 µM)	4 (≈ 9.67 µM)	4 (≈ 9.67 µM)	–	–	–
CC(CCc1ccc(OCC2CCOCC2)cc1)(C(=O)NO)S(C)(=O)=O (stereo not shown) [Example 261, N-hydroxy-2-methyl-2-(methylsulfonyl)-4-[4-(tetrahydro-2H-pyran-4-ylmethoxy)phenyl]butanamide]	≧64 mg/L	–	–	–	–	4.93	≥ 64	32 (≈ 83 µM)	≥ 64	–	–	–
CC(CCc1ccc(OCc2ccc(-n3cccn3)cc2)cc1)(C(=O)NO)S(C)(=O)=O (stereo not shown) [Example 304, N-hydroxy-2-methyl-2-(methylsulfonyl)-4-(4-{[4-(1H-pyrazol-1-yl)benzyl]oxy}phenyl)butanamide]	16 µg/mL	–	–	–	–	1.99	32 (≈ 72.1 µM)	16 (≈ 36.1 µM)	4 (≈ 9.02 µM)	–	–	–
CC(CCc1ccc(OCc2cccnc2)cc1)(C(=O)NO)S(C)(=O)=O (stereo not shown) [Example 303, N-hydroxy-2-methyl-2-(methylsulfonyl)-4-[4-(pyridin-3-ylmethoxy)phenyl]butanamide]	≧64 mg/L	–	–	–	–	4.58	≥ 64	16 (≈ 42.3 µM)	≥ 64	–	–	–
CC(CCc1ccc(OCc2c(F)cc(F)cc2F)cc1)(C(=O)NO)S(C)(=O)=O (stereo not shown) [Example 293, N-hydroxy-2-methyl-2-(methylsulfonyl)-4-{4-[(2,4,6-trifluorobenzyl)oxy]phenyl}butanamide]	32 µg/mL	–	–	–	–	0.955	32 (≈ 74.2 µM)	4 (≈ 9.27 µM)	4 (≈ 9.27 µM)	–	–	–
CC(CCc1ccc(-c2cccc(F)c2F)cc1)(C(=O)NO)S(C)(=O)=O (stereo not shown) [Example 62]	16 µg/mL	0.185	–	–	–	–	–	–	–	16 µg/mL	0.25 µg/mL	0.5 µg/mL
COc1cccc(-c2ccc(CC[C@](C)(C(=O)NO)S(C)(=O)=O)cc2)c1 [Example 170]	≧64 mg/L	54	–	–	–	–	–	–	–	16 µg/mL	≧64 mg/L	≧64 mg/L
CC(CCc1ccc(-c2ccc(O)c(F)c2)cc1)(C(=O)NO)S(C)(=O)=O (stereo not shown) [Example 138]	8 µg/mL	0.335	–	–	–	–	–	–	–	32 µg/mL	1 µg/mL	2 µg/mL
CC(CCc1ccc(OCc2nc(-c3cccnc3)no2)cc1)(C(=O)NO)S(C)(=O)=O (stereo not shown) [Example 305, N-hydroxy-2-methyl-2-(methylsulfonyl)-4-{4-[(3-pyridin-3-yl-1,2,4-oxadiazol-5-yl)methoxy]phenyl}butanamide]	≧64 mg/L	–	–	–	–	7.53	≥ 64	32 (≈ 71.7 µM)	32 (≈ 71.7 µM)	–	–	–
CC(CCc1ccc(OCc2c(F)cccc2F)cc1)(C(=O)NO)S(C)(=O)=O (stereo not shown) [Example 258, 4-{4-[(2,6-difluorobenzyl)oxy]phenyl}-N-hydroxy-2-methyl-2-(methylsulfonyl)butanamide]	16 µg/mL	–	–	–	–	0.599	32 (≈ 77.4 µM)	2 (≈ 4.84 µM)	2 (≈ 4.84 µM)	–	–	–
CC(CCc1ccc(OCc2ccc(OC(F)(F)F)cc2)cc1)(C(=O)NO)S(C)(=O)=O (stereo not shown) [Example 288, N-hydroxy-2-methyl-2-(methylsulfonyl)-4-(4-{[4-(trifluoromethoxy)benzyl]oxy}phenyl)butanamide]	8 µg/mL	–	–	–	–	1.53	4 (≈ 8.67 µM)	8 (≈ 17.3 µM)	4 (≈ 8.67 µM)	–	–	–
C[C@@](CCc1ccc(-c2ccc(OCC(=O)N3CCC(O)CC3)cc2)cc1)(C(=O)NO)S(C)(=O)=O [Example 221]	≧64 mg/L	0.533	≧64 mg/L	16	16 µg/mL	–	–	–	–	–	–	–
C[C@@](CCc1ccc(-c2ccc(C#N)cc2)cc1)(C(=O)NO)S(C)(=O)=O [Example 107]	1 µg/mL	0.134	–	–	–	–	–	–	–	16 µg/mL	0.25 µg/mL	0.25 µg/mL
C[C@@](CCc1ccc(-c2ccc(OCCCN3CCCCC3)cc2)cc1)(C(=O)NO)S(C)(=O)=O [Example 220]	32 µg/mL	0.467	≧64 mg/L	16	8 µg/mL	–	–	–	–	–	–	–
CC(=O)Nc1ccc(-c2ccc(CCC(C)(C(=O)NO)S(C)(=O)=O)cc2F)cc1 (stereo not shown) [Example 207]	≧64 mg/L	7.09	≧64 mg/L	16	32 µg/mL	–	–	–	–	–	–	–
Cc1cc(F)ccc1-c1ccc(CCC(C)(C(=O)NO)S(C)(=O)=O)cc1 (stereo not shown) [Example 98]	16 µg/mL	1.23	–	–	–	–	–	–	–	32 µg/mL	2 µg/mL	4 µg/mL
Cc1ccc(Cc2noc(COc3ccc(CCC(C)(C(=O)NO)S(C)(=O)=O)cc3)n2)cc1 (stereo not shown) [Example 283, N-hydroxy-2-methyl-4-(4-{[3-(4-methylbenzyl)-1,2,4-oxadiazol-5-yl]methoxy}phenyl)-2-(methylsulfonyl)butanamide]	≧64 mg/L	–	–	–	–	6.32	≥ 64	≥ 64	16 (≈ 33.8 µM)	–	–	–
